Key:
[1] = molecular target: T1, monoacylglycerol lipase (MAGL) (Homo sapiens, UniProt Q99685); type: biochemical
T1 sequence (Q99685 1-303): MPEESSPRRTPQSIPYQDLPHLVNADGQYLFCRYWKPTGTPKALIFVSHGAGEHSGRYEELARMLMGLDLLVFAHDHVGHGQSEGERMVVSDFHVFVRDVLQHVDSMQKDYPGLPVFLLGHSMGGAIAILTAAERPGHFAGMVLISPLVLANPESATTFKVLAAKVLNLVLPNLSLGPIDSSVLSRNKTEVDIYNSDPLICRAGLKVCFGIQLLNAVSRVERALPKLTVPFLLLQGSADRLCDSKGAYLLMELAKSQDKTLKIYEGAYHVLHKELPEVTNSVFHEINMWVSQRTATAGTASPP

[2] = molecular target: T2, fatty acid amide hydrolase (FAAH) (Rattus norvegicus, UniProt P97612); type: biochemical
T2 sequence (P97612 1-579): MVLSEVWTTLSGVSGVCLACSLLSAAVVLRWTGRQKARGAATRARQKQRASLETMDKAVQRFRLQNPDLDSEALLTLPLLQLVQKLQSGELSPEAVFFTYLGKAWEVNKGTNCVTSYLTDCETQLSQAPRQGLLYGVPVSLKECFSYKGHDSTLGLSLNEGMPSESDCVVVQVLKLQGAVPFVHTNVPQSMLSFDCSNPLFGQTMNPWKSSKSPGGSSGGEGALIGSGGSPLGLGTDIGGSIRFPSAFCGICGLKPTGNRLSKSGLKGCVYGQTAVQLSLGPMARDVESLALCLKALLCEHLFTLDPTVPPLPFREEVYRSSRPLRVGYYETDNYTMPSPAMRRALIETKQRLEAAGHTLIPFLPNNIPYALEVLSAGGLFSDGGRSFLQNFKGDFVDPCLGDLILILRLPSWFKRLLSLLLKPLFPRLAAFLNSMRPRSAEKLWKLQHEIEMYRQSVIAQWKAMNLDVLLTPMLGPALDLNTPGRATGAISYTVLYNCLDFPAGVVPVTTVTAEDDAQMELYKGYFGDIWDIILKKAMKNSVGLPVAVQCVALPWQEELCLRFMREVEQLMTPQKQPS

Substance AM5206 has an IC50 [1] of 15.1 µM and an IC50 [2] of 0.042 ± 0.006 µM.
